We go through 22 compounds from patent US9469608B2, “Thrombin inhibitors” (Merck Sharp & Dohme Corp., priority 2012, dated 2016).

For one experiment, the target named is human α-thrombin (Homo sapiens (Human), UniProt P00734). Briefly: In vitro assay for determining proteinase inhibition (thrombin Ki). In kind it is biochemical.
Settings: not given
The protocol: NMR determinations were made using 400 MHz field strength. Ki data was obtained according to the procedure described in Lewis, et al. Thromb. […] Reactions sensitive to moisture or air were performed under nitrogen or argon using anhydrous solvents and reagents. […] Typically, the analytical LC-MS system used consisted of a Waters ZQ platform with electrospray ionization in positive ion detection mode with an Agilent 1100 series HPLC with autosampler. The column was usually a Water Xterra MS C18, 3.0×50 mm, 5 μm. The flow rate was 1 mL/min, and the injection volume was 10 μL. UV detection was in the range 210-400 nm. […] Preparative HPLC purifications were usually performed using a mass spectrometry directed system. […] The mobile phases consisted of mixtures of acetonitrile (10-100%) in water containing 0.1% TFA. Flow rates were maintained at 50 mL/min, the injection volume was 1800 μL, and the UV detection range was 210-400 nm. Mobile phase gradients were optimized for the individual compounds. Reactions performed using microwave irradiation were normally carried out using an Emrys Optimizer manufactured by Personal Chemistry, or an Initiator manufactured by Biotage. Concentration of solutions was carried out on a rotary evaporator under reduced pressure. Flash chromatography was usually performed using a Biotage Flash Chromatography apparatus (Dyax Corp.) on silica gel ([…], 60 Å pore size) in pre-packed cartridges of the size noted. ^1H NMR spectra were acquired at 500 MHz spectrometers in CDCl3 solutions unless otherwise noted. Chemical shifts were reported in parts per million (ppm). Tetramethylsilane (TMS) was used as internal reference in CD3Cl solutions, and residual CH3OH peak or TMS was used as internal reference in CD3OD solutions. Coupling constants (J) were reported in hertz (Hz). Chiral analytical chromatography was performed on one of Chiralpak AS, Chiralpak AD, Chiralcel OD, Chiralcel IA, or Chiralcel OJ columns (250×4.6 mm) (Daicel Chemical Industries, Ltd.) with noted percentage of either ethanol in hexane (% Et/Hex) or isopropanol in heptane (% IPA/Hep) as isocratic solvent systems. Chiral preparative chromatography was conducted on one of Chiralpak AS, Chiralpak AD, Chiralcel OD, Ciralcel IA, or Chiralcel OJ columns (20×250 mm) (Daicel Chemical Industries, Ltd.) with desired isocratic solvent systems identified on chiral analytical chromatography or by supercritical fluid (SFC) conditions. Celite® (Fluka) diatomite is diatomaceous earth, and can be referred to as “celite”.
Relevant in vitro assays are referenced in Morrissette, et al., Bioorg. […] The assays were carried out at 25° C. in 0.05 M TRIS buffer pH 7.4, 0.15 M NaCl, 0.1% PEG. Trypsin assays also contained 1 mM CaC12.
Concentrations of stock solutions of Z-GPR-afc were determined from measurements of absorbance at 380 nm of the 7-amino-4-trifluoromethyl coumarin produced upon complete hydrolysis of an aliquot of the stock solution by thrombin.
Activity assays were performed by diluting a stock solution of substrate at least tenfold to a final concentration ≦0.1 Km into a solution containing enzyme or enzyme equilibrated with inhibitor. Times required to achieve equilibration between enzyme and inhibitor were determined in control experiments. Initial velocities of product formation in the absence (Vo) or presence of inhibitor (Vi) were measured. Assuming competitive inhibition, and that unity is negligible compared Km/[S], [I]/e, and [I]/e (where [S], [I], and e respectively represent the total concentrations, of substrate, inhibitor and enzyme), the equilibrium constant (Ki) for dissociation of the inhibitor from the enzyme can be obtained from the dependence of Vo/Vi on [I] shown in the following equation.
As usually defined, the Ki is a dissociation constant, usually derived from enzyme kinetics or from competition with a known ligand. Take `NCc1ccc(Cl)cc1CNC(=O)[C@@H]1CCCN1C(=O)c1cc(-c2ccncc2)c[nH]1` [Compound 13-10, (S)—N-{2-(Aminomethyl)-5-chlorobenzyl)-1-{4-(pyridin-4-yl)-1H-pyrrole-2-carbonyl) pyrrolidine-2-carboxamide-bis(2,2,2-trifluoroacetate)]: the affinity, expressed as Ki, was 0.0034 µM.
Compound `NCc1ccc(Cl)cc1CNC(=O)[C@@H]1CCN1C(=O)C1(O)CCc2ncccc21` (stereo partly drawn) [Compound 26-12, (2S)-N-{2-(Aminomethyl)-5-chlorobenzyl}-1-(5-hydroxy-6,7-dihydro-5H-cyclopenta[b]pyridine-5-carbonyl)azetidine-2-carboxamide bis(2,2,2-trifluoroacetate)] had a Ki of 0.325 µM.
`NCc1ccc(Cl)cc1CNC(=O)[C@@H]1CCCN1C(=O)C1CNc2ccccc21` (stereo partly drawn) [Compound 25-5, (2S)-N-{2-(Aminomethyl)-5-chlorobenzyl}-1-(indoline-3-carbonyl)pyrrolidine-2-carboxamide bis(2,2,2-trifluoroacetate)]: affinity was put at a Ki of 0.059 µM.
Compound `NCc1ccc(Cl)cc1CNC(=O)[C@@H]1CCCN1C(=O)C1(O)CCc2ncccc21` (stereo partly drawn) [Compound 19-4, (2S)-N-{2-(Aminomethyl)-5-chlorobenzyl}-1-(5-hydroxy-6,7-dihydro-5H-cyclopenta[b]pyridine-5-carbonyl)pyrrolidine-2-carboxamide-2,2,2-trifluoroacetate] returned an inhibition constant (Ki) of 0.049 µM.

The same experiment, now with this note: 25° C., 0.05 M TRIS buffer pH 7.4, 0.15 M NaCl, 0.1% PEG; competitive inhibition assumed.
`NCc1ccc(Cl)cc1CNC(=O)[C@@H]1CCCN1C(=O)C1(O)CCCc2ncccc21` (stereo partly drawn) [Compound 30-6, (2S)-N-{2-(Aminomethyl)-5-chlorobenzyl}-1-(5-hydroxy-5,6,7,8-tetrahydroquinoline-5-carbonyl)pyrrolidine-2-carboxamide bis(2,2,2-trifluoroacetate)] yielded a Ki of 0.011 µM.
In turn, `C[C@@]1(C(=O)NCc2cc(Cl)ccc2CN)CCCN1C(=O)[C@H]1CCC(=O)N1` [Compound 43, (S)-N-(2-(aminomethyl)-5-chlorobenzyl)-2-methyl-1-((R)-5-oxopyrrolidine-2-carbonyl)pyrrolidine-2-carboxamide] registered a Ki of 0.526 µM.
Same read-out and setting: the figure for `C[C@@]1(C(=O)NCc2cc(Cl)ccc2CN)CCCN1C(=O)c1ccc(Cl)[nH]1` [Compound 44, (S)-N-(2-(aminomethyl)-5-chlorobenzyl)-1-(5-chloro-1H-pyrrole-2-carbonyl)-2-methylpyrrolidine-2-carboxamide] is 0.104 µM; for `NCc1ccc(Cl)cc1CNC(=O)[C@@H]1CCCN1C(=O)c1cc(-c2ccccn2)c[nH]1` [Compound 15-8, (S)—N-[{2-(Aminomethyl)-5-chlorobenzyl}-1-{4-(pyridin-2-yl)-1H-pyrrole-2-carbonyl}]pyrrolidine-2-carboxamide bis (2,2,2-trifluoroacetate)] it is 0.022 µM; for `CC(C)(C)[C@@H](O)C(=O)N1CCC[C@H]1C(=O)NCc1cc(Cl)ccc1CO` [Compound 17-5, (S)—N-{5-Chloro-2-(hydroxymethyl)benzyl}-1-{(R)-2-hydroxy-3,3-dimethylbutanoyl}pyrrolidine-2-carboxamide] it is 3.5 µM.
In the case of `NCc1ccc(Cl)cc1CNC(=O)[C@@H]1CCCN1C(=O)C1OCc2ccccc21` (stereo partly drawn) [Compound 21-6, (2S)-N-{2-(Aminomethyl)-5-chlorobenzyl}-1-(1,3-dihydroisobenzofuran-1-carbonyl)pyrrolidine-2-carboxamide-2,2,2-trifluoroacetate], the inhibitory constant (Ki) was determined as 0.015 µM.
Same read-out and setting: the value for `NCc1ccc(Cl)cc1CNC(=O)[C@@H]1CCCN1C(=O)c1cc(C(O)c2ccccn2)c[nH]1` (stereo partly drawn) [Compound 11-2, (2S)-N-{2-(Aminomethyl)-5-chlorobenzyl}-1-[4-{hydroxyl(pyridine-2-yl)methyl}-1H-pyrrole-2-carbonyl]pyrrolidine-2-carboxamide] was 0.0097 µM.
Consider `NCc1ccc(Cl)cc1CNC(=O)[C@@H]1CCCN1C(=O)C1c2ccccc2CS1(=O)=O` (stereo partly drawn) [Compound 22-10, (2S)-N-{2-(Aminomethyl)-5-chlorobenzyl}-1-(2,2-dioxido-1,3-dihydrobenzo[a]thiophene-1-carbonyl)pyrrolidine-2-carboxamide-2,2,2-trifluoroacetate-2,2,2-trifluoroacetate], for which the affinity corresponds to a Ki of 0.4 µM.
The compound `NCc1ccc(Cl)cc1CNC(=O)[C@@H]1CCCN1C(=O)C1NCc2ccccc21` (single isomer, unassigned) [Compound 23-4a, bis(2,2,2-trifluoroacetate)] yielded a Ki of 0.077 µM.
Compound `NCc1ccc(Cl)cc1CNC(=O)[C@@H]1CCCN1C(=O)C1(O)CCc2ccncc21` (stereo partly drawn) [Compound 28-6, (2S)-N-{2-(aminomethyl)-5-chlorobenzyl}-1-(7-hydroxy-6,7-dihydro-5H-cyclopenta[c]pyridine-7-carbonyl)pyrrolidine-2-carboxamide bis (2,2,2-trifluoroacetate)] returned a Ki of 0.016 µM.
The same measure, in the same setting: the figure for `NCc1ccc(Cl)cc1CNC(=O)[C@@H]1CCN1C(=O)C1CNc2ccccc21` (stereo partly drawn) [Compound 35-7, (2S)-N-{2-(Aminomethyl)-5-chlorobenzyl}-1-(indoline-3-carbonyl)azetidine-2-carboxamide bis(2,2,2-trifluoroacetate)] is 0.11 µM; for `NCc1ccc(Cl)cc1CNC(=O)[C@@H]1CCCN1C(=O)C1(O)CCCc2cnccc21` (stereo partly drawn) [Compound 31-7, (2S)-N-{2-(Aminomethyl)-5-chlorobenzyl}-1-(5-hydroxy-5,6,7,8-tetrahydroisoquinoline-5-carbonyl)pyrrolidine-2-carboxamide bis(2,2,2-trifluoroacetate)] it is 0.0048 µM; for `NCc1ccc(Cl)cc1CNC(=O)[C@@H]1CCCN1C(=O)C1(O)CCc2cnccc21` (stereo partly shown) [Compound 27-9] it is 0.02 µM.
In the case of `CC(C)(C)[C@@H](CCO)C(=O)N1CCC[C@H]1C(=O)NCc1cc(Cl)ccc1CN` [Compound 1-12, (S)—N-[2-(Aminomethyl)-5-chlorobenzyl]-1-[(R)-2-(2-hydroxyethyl)-3,3-dimethylbutanoyl]pyrrolidine-2-carboxamide-2,2,2-trifluoroacetate], the affinity, expressed as Ki, was 0.025 µM.
As to `NCc1ccc(Cl)cc1CNC(=O)[C@@H]1CCCN1C(=O)c1cc(Cc2ccncc2)c[nH]1` [Compound 7-1, (S)—N-{2-(Aminomethyl)-5-chlorobenzyl}-1-{4-(pyridin-4-ylmethyl)-1H-pyrrole-2-carbonyl}pyrrolidine-2-carboxamide-bis(2,2,2-trifluoroacetate)], the affinity, expressed as Ki, was 0.017 µM.
`NCc1ccc(Cl)cc1CNC(=O)[C@@H]1CCCN1C(=O)c1cc(C(O)c2cccnc2)c[nH]1` (stereo partly drawn) [Compound 9-2, (2S)-N-{2-(Aminomethyl)-5-chlorobenzyl}-1-[4-{hydroxy(pyridine-3-yl)methyl}-1H-pyrrole-2-carbonyl]pyrrolidine-2-carboxamide] registered an inhibition constant Ki of 0.013 µM.
The compound `O=C(NCc1cc(Cl)ccc1-n1cnnn1)[C@@H]1CCCN1C(=O)C1(O)CCc2cccnc21` (stereo partly drawn) [Compound 36-3, (2S)-N-{5-Chloro-2-(1H-tetrazol-1-yl)benzyl}-1-(7-hydroxy-6,7-dihydro-5H-cyclopenta[b]pyridine-7-carbonyl)pyrrolidine-2-carboxamide] had an inhibition constant (Ki) of 0.0025 µM.
Consider `CCOC(=O)c1ccc(C(=O)N2CCC[C@H]2C(=O)NCc2cc(Cl)ccc2CN)[nH]1` [Compound 3-5, (S)-Ethyl-5-[2-{(2-(aminomethyl)-5-chlorobenzyl)carbamoyl}-pyrrolidine-1-carbonyl]-1H-pyrrole-2-carboxylate-2,2,2-trifluoroacetate], for which the affinity corresponds to a Ki of 0.047 µM.
